Results from patent US20070154573A1 (priority 2005, published 2007).
In brackets after ≈: the same amount, converted by molar mass. Where two headings read alike, the source gives them in different places. Marks after values point to notes of the source that are not given here.

What was measured:
T24 (bladder) [1] = conditions: for IC50: Homo sapiens, read-out: IC50 of standard agent alone
PANC1 (pancreas) [2] = conditions: for IC50: Homo sapiens, PANC-1, read-out: IC50 of standard agent alone
MT-4 cells = assay: Viability of mock-infected MT-4 cells (MTT); type: cell-based; conditions: viability of mock-infected MT-4 cells reduced by 50%
Description: Compound concentrations (μg/ml) required to reduce the viability of mock-infected MT-4 cells by 50% are determined by the MTT-method.

HIV-1 = conditions: 50% protection of MT-4 cells, MTT-method
Description: 1-Mock-infected MT-4 cell lines are used to support the growth of the HIV-1 virus.
Compound concentrations (μg/ml) required to achieve 50% protection of MT-4 cells from the HIV-1 induced cytopathogenecity, as determined by the MTT-method.

T24 (bladder) [3] = system: T24 (bladder)
PANC1 (pancreas) [4] = system: PANC1 (pancreas)
[5] = molecular target: reverse-transcriptase enzyme; assay: Efficacy against reverse-transcriptase (RT); type: biochemical; conditions: in vitro
Description: 5.a Efficacy Against Reverse-Transcriptase (RT) Using Phosphonoformate as Inhibitors of RT • The inhibitory effect of the cold extract according to the present invention against the reverse-transcriptase enzyme is also studied using three different concentrations (0.1, 1 and 10 μg/ml) in vitro and compared with the phosphonoformate (PFA) as inhibitors of RT.

Which IC50 (H460 (lung)) does the source give for `O=c1[nH]cc(F)c(=O)[nH]1` [5-FU, 5-fluoro-uracil] here?
Its IC50 is 0.157 µg/mL (≈ 1.21 µM).

What about the IC50 (T24 (bladder) [1]) of the same compound?
The IC50 was 0.429 µg/mL (≈ 3.3 µM).

And the IC50 (PANC1 (pancreas) [2])?
The IC50 was 0.247 µg/mL (≈ 1.9 µM).

Which results are given for `COc1cccc2c1C(=O)c1c(O)c3c(c(O)c1C2=O)C[C@@](O)(C(=O)CO)C[C@@H]3O[C@H]1C[C@H](N)[C@H](O)[C@H](C)O1` [ADR, adriamycin]?
IC50 (HCT116 (colon)): 0.006 µg/mL (≈ 0.011 µM); IC50 (H460 (lung)): 0.004 µg/mL (≈ 0.00736 µM); IC50 (T24 (bladder) [1]): 0.058 µg/mL (≈ 0.107 µM); IC50 (PANC1 (pancreas) [2]): 0.022 µg/mL (≈ 0.0405 µM)

Which “IC50 (MT-4)” value (MT-4 cells) does the source give for `Cc1cn([C@H]2C[C@H](N=[N+]=[N-])[C@@H](CO)O2)c(=O)[nH]c1=O` [AZT] here?
Its value is greater than 10 µg/mL.

What about the “EC50 (HIV-1)” value (HIV-1) of the same compound?
The value was 0.01 µg/mL (≈ 0.0374 µM).

What does the source list for `Nc1nc2[nH]cc(CCc3ccc(C(=O)N[C@@H](CCC(=O)O)C(=O)O)cc3)c2c(=O)[nH]1` [Alimta, alimta]?
IC50 (H460 (lung)): 0.018 µg/mL (≈ 0.0421 µM); standard agent alone, based on IC70 values (PANC1 (pancreas) [2]; PANC1, no Breastin, Exp. GF683, IC70): <100^2) μg/ml

Which IC50 (T24 (bladder) [3]) does the source give for `O=P1(N(CCCl)CCCl)NCCCO1` (stereo not shown) [CYACT, cyclophosphamide] here?
Its IC50 is 0.32 µg/mL (≈ 1.23 µM).

And the IC50 (PANC1 (pancreas) [4])?
Its IC50 is 0.193 µg/mL (≈ 0.739 µM).

With `N.N.[Cl][Pt][Cl]` [Cis-Platin, cisplatin] as the compound, how does the IC50 (HCT116 (colon)) read?
Its IC50 is greater than 30 µg/mL.

And the “IC50 of standard agent alone” value (T24 (bladder) [1]; T24, no Breastin, Exp. GF649)?
Its value is greater than 30 µg/mL.

And the “IC50 of standard agent alone” value (PANC1 (pancreas) [2]; PANC1, no Breastin, Exp. GF654)?
The value was 5.48 µg/mL.

What does the source list for `CO[C@@]12[C@H](COC(N)=O)C3=C(C(=O)C(C)=C(N)C3=O)N1C[C@@H]1N[C@@H]12` [Mitomycin, mitomycin-C]?
IC50 (T24 (bladder) [3]): 0.056 µg/mL (≈ 0.167 µM); IC50 (H460 (lung)): 0.009 µg/mL (≈ 0.0269 µM)

With `CCC1=C[C@@H]2CN(C1)Cc1c([nH]c3ccccc13)[C@@](C(=O)OC)(c1cc3c(cc1OC)N(C)[C@H]1[C@@](O)(C(=O)OC)[C@H](OC(C)=O)[C@]4(CC)C=CCN5CC[C@]31[C@@H]54)C2` [Navelbine, navelbine] as the compound, how does the IC50 (T24 (bladder) [3]) read?
The IC50 was 0.144 µg/mL (≈ 0.185 µM).

And the IC50 (HCT116 (colon))?
The IC50 was 0.06 µg/mL (≈ 0.077 µM).

What about the IC50 (H460 (lung)) of the same compound?
Its IC50 is 0.057 µg/mL (≈ 0.0732 µM).

What about the IC50 (PANC1 (pancreas) [4]) of the same compound?
The IC50 was 0.119 µg/mL (≈ 0.153 µM).

`O=C(O)P(=O)(O)O` [PFA, phosphonoformate] was tested. Which “IC50, reverse-transcriptase enzyme” value [5] did it give?
Its value is 6 to 20 µg/mL.

How did the IC50 (H460 (lung)) turn out when `CC(=O)O[C@H]1C(=O)[C@@]2(C)[C@H]([C@H](OC(=O)c3ccccc3)[C@]3(O)C[C@H](OC(=O)[C@H](O)[C@@H](NC(=O)c4ccccc4)c4ccccc4)C(C)=C1C3(C)C)[C@]1(OC(C)=O)CO[C@@H]1C[C@@H]2O` [TAXOL, taxol] was run?
Its IC50 is 0.0019 µg/mL (≈ 0.00223 µM).

And the IC50 (T24 (bladder) [1])?
Its IC50 is 0.01 µg/mL (≈ 0.0117 µM).

What about the IC50 (PANC1 (pancreas) [2]) of the same compound?
Its IC50 is 0.0019 µg/mL (≈ 0.00223 µM).

Which IC50 (T24 (bladder) [3]) does the source give for `CC(=O)O[C@@]12CO[C@@H]1C[C@H](O)[C@@]1(C)C(=O)[C@H](O)C3=C(C)[C@@H](OC(=O)[C@H](O)[C@@H](NC(=O)OC(C)(C)C)c4ccccc4)C[C@@](O)([C@@H](OC(=O)c4ccccc4)[C@H]21)C3(C)C` [Taxotere, taxotere] here?
The IC50 was 0.163 µg/mL (≈ 0.202 µM).

What about the IC50 (H460 (lung)) of the same compound?
The IC50 was 0.059 µg/mL (≈ 0.073 µM).

With `CC[C@@]1(O)C(=O)OCc2c1cc1n(c2=O)Cc2cc3c(CN(C)C)c(O)ccc3nc2-1` [Topotecan, topotecan] as the compound, how does the IC50 (T24 (bladder) [3]) read?
Its IC50 is 0.0032 µg/mL (≈ 0.00759 µM).

What about the IC50 (HCT116 (colon)) of the same compound?
The IC50 was 0.0066 µg/mL (≈ 0.0157 µM).

And the IC50 (H460 (lung))?
The IC50 was 0.0079 µg/mL (≈ 0.0187 µM).
